The record followed here is patent publication US20060281700A1, “SYNERGISTIC MODULATION OF FLT3 KINASE USING AMINOPYRIMIDINES KINASE MODULATORS” (priority 2005, published 2006).

For orientation: IC50 means the concentration that inhibits the measured activity by half. A high value points to weaker potency in that assay.

For this test, the target named is T1, isolated kinase domain of the human FLT3 receptor (a.a. 571-993) (Homo sapiens, UniProt P36888).
T1 construct: isolated kinase domain of the human FLT3 receptor (a.a. 571-993)
T1 sequence (P36888 571-993): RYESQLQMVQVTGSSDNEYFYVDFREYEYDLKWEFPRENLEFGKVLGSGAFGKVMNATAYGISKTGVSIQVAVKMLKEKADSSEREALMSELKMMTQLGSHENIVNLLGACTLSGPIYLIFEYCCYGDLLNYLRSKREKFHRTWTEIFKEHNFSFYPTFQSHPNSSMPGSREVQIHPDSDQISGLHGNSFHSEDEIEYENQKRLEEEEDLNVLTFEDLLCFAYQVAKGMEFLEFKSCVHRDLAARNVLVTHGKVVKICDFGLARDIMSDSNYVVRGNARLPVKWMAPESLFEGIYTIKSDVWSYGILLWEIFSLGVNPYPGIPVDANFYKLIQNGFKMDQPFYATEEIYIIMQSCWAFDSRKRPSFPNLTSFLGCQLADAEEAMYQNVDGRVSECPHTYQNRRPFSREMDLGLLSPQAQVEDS
Put plainly: FLT3 Fluorescence Polarization Kinase Assay. In kind it is biochemical. The settings on record: 10 nM FLT3 571-993, 150 uM ATP; uncertainty ±10%. As to the method: FLT3 Fluorescence Polarization Kinase Assay
To determine the activity of the FLT3 inhibitors of Formula I′ in an in vitro kinase assay, inhibition of the isolated kinase domain of the human FLT3 receptor (a.a. 571-993) was performed using the following fluorescence polarization (FP) protocol. The FLT3 FP assay utilizes the fluorescein-labeled phosphopeptide and the anti-phosphotyrosine antibody included in the Panvera Phospho-Tyrosine Kinase Kit (Green) supplied by Invitrogen. When FLT3 phosphorylates polyGlu4Tyr, the fluorescein-labeled phosphopeptide is displaced from the anti-phosphotyrosine antibody by the phosphorylated poly Glu4Tyr, thus decreasing the FP value. The FLT3 kinase reaction is incubated at room temperature for 30 minutes under the following conditions: 10 nM FLT3 571-993, 20 ug/mL poly Glu4Tyr, 150 uM ATP, 5 mM MgCl2, 1% compound in DMSO. The kinase reaction is stopped with the addition of EDTA. The fluorescein-labeled phosphopeptide and the anti-phosphotyrosine antibody are added and incubated for 30 minutes at room temperature.
All data points are an average of triplicate samples. Inhibition and IC50 data analysis was done with GraphPad Prism using a non-linear regression fit with a multiparamater, sigmoidal dose-response (variable slope) equation.
A general note: Polarisation of emitted light reports the rotation of a fluorescent probe.
Regarding `CO/N=C/c1c(N)ncnc1N1CCC(NC(=O)Nc2ccc(Cl)cc2)CC1` [Number 25, 1-{1-[6-Amino-5-(methoxyimino-methyl)-pyrimidin-4-yl]-piperidin-4-yl}-3-(4-chloro-phenyl)-urea], the midpoint of inhibition, the IC50, lay at 34 nM.

In turn, `CCNC(=O)NCCO/N=C/c1c(N)ncnc1N1CCC(NC(=O)Nc2ccc(C(C)C)cc2)C1` (stereo not shown) [Number 28, 1-[1-(6-Amino-5-{[2-(3-ethyl-ureido)-ethoxyimino]-methyl}-pyrimidin-4-yl)-pyrrolidin-3-yl]-3-(4-isopropyl-phenyl)-urea] showed an IC50 of 2700 nM.

As to `CO/N=C/c1c(N)ncnc1N1CCC(NC(=O)Nc2ccc(OC3CCC3)nc2)CC1` [Number 15, 1-{1-[6-Amino-5-(methoxyimino-methyl)-pyrimidin-4-yl]-piperidin-4-yl}-3-(6-cyclobutoxy-pyridin-3-yl)-urea], inhibition was half-maximal at 410 nM (IC50). This IC50 lies about 6.6-fold lower than the previous one.

Compound `CO/N=C/c1c(N)ncnc1N1CCC(NC(=O)Nc2ccc(Oc3ccccc3)cc2)C1` (stereo not shown) [Number 19, 1-{1-[6-Amino-5-(methoxyimino-methyl)-pyrimidin-4-yl]-pyrrolidin-3-yl}-3-(4-phenoxy-phenyl)-urea] showed an IC50 of 2500 nM.

For `CO/N=C/c1c(N)ncnc1N1CCC(NC(=O)Nc2ccc(OC(C)C)cc2)CC1` [Number 12, 1-{1-[6-Amino-5-(methoxyimino-methyl)-pyrimidin-4-yl]-piperidin-4-yl}-3-(4-isopropoxy-phenyl)-urea], half-maximal inhibition (IC50) required 460 nM.

For `CO/N=C/c1c(N)ncnc1N1CCC(NC(=O)Nc2ccc(N3CCCCC3)cc2)CC1` [Number 13, 1-{1-[6-Amino-5-(methoxyimino-methyl)-pyrimidin-4-yl]-piperidin-4-yl}-3-(4-piperidin-1-yl-phenyl)-urea], the IC50 is 310 nM.

`CO/N=C/c1c(N)ncnc1N1CCC(NC(=O)Nc2ccc(OC3CCCC3)nc2)CC1` [Number 23, 1-{1-[6-Amino-5-(methoxyimino-methyl)-pyrimidin-4-yl]-piperidin-4-yl}-3-(6-cyclopentyloxy-pyridin-3-yl)-urea]: the IC50 was found to be 65 nM.

With `CO/N=C/c1c(N)ncnc1N1CCC(NC(=O)Nc2ccc(N3CCCC3)cc2)C1` (stereo not shown) [Number 20, 1-{1-[6-Amino-5-(methoxyimino-methyl)-pyrimidin-4-yl]-pyrrolidin-3-yl}-3-(4-pyrrolidin-1-yl-phenyl)-urea], the IC50 is 4500 nM.

Take `CO/N=C/c1c(N)ncnc1N1CCC(NC(=O)Nc2ccc(C3CCCCC3)cc2)CC1` [Number 22, 1-{1-[6-Amino-5-(methoxyimino-methyl)-pyrimidin-4-yl]-piperidin-4-yl}-3-(4-cyclohexyl-phenyl)-urea]: half-maximal inhibition (IC50) required 78 nM.

In the case of `CO/N=C/c1c(N)ncnc1N1CCC(OC(=O)Nc2ccc(C(C)C)cc2)CC1` [Number 5, (4-Isopropyl-phenyl)-carbamic acid 1-[6-amino-5-(methoxyimino-methyl)-pyrimidin-4-yl]-piperidin-4-yl ester], the midpoint of inhibition, the IC50, lay at 29 nM.

`CCO/N=C/c1c(N)ncnc1N1CCC(OC(=O)Nc2ccc(OC(C)C)cc2)CC1` [Number 2, (4-Isopropoxy-phenyl)-carbamic acid 1-[6-amino-5-(ethoxyimino-methyl)-pyrimidin-4-yl]-piperidin-4-yl ester] returned an IC50 of 55 nM.

For `CC(C)c1ccc(NC(=O)NC2CCN(c3ncnc(N)c3/C=N/OCC(=O)N3CCOCC3)C2)cc1` (stereo not shown) [Number 29, 1-(1-{6-Amino-5-[(2-morpholin-4-yl-2-oxo-ethoxyimino)-methyl]-pyrimidin-4-yl}-pyrrolidin-3-yl)-3-(4-isopropyl-phenyl)-urea], the IC50 amounted to 1200 nM.

Regarding `CO/N=C/c1c(N)ncnc1N1CCC(NC(=O)Nc2ccc(OC(C)C)cc2)C1` (stereo not shown) [Number 8, 1-{1-[6-Amino-5-(methoxyimino-methyl)-pyrimidin-4-yl]-pyrrolidin-3-yl}-3-(4-isopropoxy-phenyl)-urea], half-maximal inhibition (IC50) required 290 nM.

Regarding `CO/N=C/c1c(N)ncnc1N1CCC(OC(=O)Nc2ccc(OC(C)C)cc2)CC1` [Number 1, (4-Isopropoxy-phenyl)-carbamic acid 1-[6-amino-5-(methoxyimino-methyl)-pyrimidin-4-yl]-piperidin-4-yl ester], the IC50 was found to be 150 nM.

`CO/N=C/c1c(N)ncnc1N1CCC(CC(=O)Nc2ccc(C(C)C)cc2)CC1` [Number 7, 2-{1-[6-Amino-5-(methoxyimino-methyl)-pyrimidin-4-yl]-piperidin-4-yl}-N-(4-isopropyl-phenyl)-acetamide] came in with a 50% inhibitory concentration (IC50) of 81 nM.

In turn, `CO/N=C/c1c(N)ncnc1N1CCC(NC(=O)Nc2ccc(N3CCOCC3)cc2)C1` (stereo not shown) [Number 10, 1-{1-[6-Amino-5-(methoxyimino-methyl)-pyrimidin-4-yl]-pyrrolidin-3-yl}-3-(4-morpholin-4-yl-phenyl)-urea] yielded an IC50 of 1100 nM.

`CO/N=C/c1c(N)ncnc1N1CCC(NC(=O)Nc2ccc(Oc3ccccc3)cc2)CC1` [Number 26, 1-{1-[6-Amino-5-(methoxyimino-methyl)-pyrimidin-4-yl]-piperidin-4-yl}-3-(4-phenoxy-phenyl)-urea]: the IC50 came out at 20 nM.

`CO/N=C/c1c(N)ncnc1N1CCC(NC(=O)Nc2ccc(OC3CCCC3)nc2)C1` (stereo not shown) [Number 21, 1-{1-[6-Amino-5-(methoxyimino-methyl)-pyrimidin-4-yl]-pyrrolidin-3-yl}-3-(6-cyclopentyloxy-pyridin-3-yl)-urea] displayed a half-maximal inhibitory concentration (IC50) of 4500 nM.

On to `CO/N=C/c1c(N)ncnc1N1CCC(NC(=O)Nc2ccc(OC3CCC3)nc2)C1` (stereo not shown) [Number 11, 1-{1-[6-Amino-5-(methoxyimino-methyl)-pyrimidin-4-yl]-pyrrolidin-3-yl}-3-(6-cyclobutoxy-pyridin-3-yl)-urea], for which the IC50 turned out to be 160 nM.

Take `CC(C)Oc1ccc(NC(=O)OC2CCN(c3ncnc(N)c3/C=N/OCCCN(C)C)CC2)cc1` [Number 4, (4-Isopropoxy-phenyl)-carbamic acid 1-{6-amino-5-[(3-dimethylamino-propoxyimino)-methyl]-pyrimidin-4-yl}-piperidin-4-yl ester]: the IC50 came out at 300 nM.

Regarding `CO/N=C/c1c(N)ncnc1N1CCC(CC(=O)Nc2ccc(C(C)C)cc2)C1` (stereo not shown) [Number 6, 2-{1-[6-Amino-5-(methoxyimino-methyl)-pyrimidin-4-yl]-pyrrolidin-3-yl}-N-(4-isopropyl-phenyl)-acetamide], the half-inhibitory concentration (IC50) amounted to 16 nM.

Compound `CO/N=C/c1c(N)ncnc1N1CCC(NC(=O)Nc2ccc(C3CCCCC3)cc2)C1` (stereo not shown) [Number 17, 1-{1-[6-Amino-5-(methoxyimino-methyl)-pyrimidin-4-yl]-pyrrolidin-3-yl}-3-(4-cyclohexyl-phenyl)-urea] displayed an IC50 above 10000 nM.

`CO/N=C/c1c(N)ncnc1N1CCC(NC(=O)Nc2ccc(N3CCOCC3)cc2)CC1` [Number 14, 1-{1-[6-Amino-5-(methoxyimino-methyl)-pyrimidin-4-yl]-piperidin-4-yl}-3-(4-morpholin-4-yl-phenyl)-urea] had an IC50 of 880 nM.

On to `CO/N=C/c1c(N)ncnc1N1CCC(NC(=O)Nc2ccc(Cl)cc2)C1` (stereo not shown) [Number 18, 1-{1-[6-Amino-5-(methoxyimino-methyl)-pyrimidin-4-yl]-pyrrolidin-3-yl}-3-(4-chloro-phenyl)-urea], for which the IC50 amounted to 2970 nM.

In the case of `CO/N=C/c1c(N)ncnc1N1CCC(NC(=O)Nc2ccc(N3CCCCC3)cc2)C1` (stereo not shown) [Number 9, 1-{1-[6-Amino-5-(methoxyimino-methyl)-pyrimidin-4-yl]-pyrrolidin-3-yl}-3-(4-piperidin-1-yl-phenyl)-urea], the IC50 stood at 450 nM.
